US20230085440A1, “METHODS OF PREVENTING AND TREATING PAIN AND ASSOCIATED SYMPTOMS” (Ethismos Research, Inc., priority 2021, published 2023)

Biological target: T1, 5-HT2c receptor (Homo sapiens, UniProt P28335)
T1 sequence (P28335 33-458): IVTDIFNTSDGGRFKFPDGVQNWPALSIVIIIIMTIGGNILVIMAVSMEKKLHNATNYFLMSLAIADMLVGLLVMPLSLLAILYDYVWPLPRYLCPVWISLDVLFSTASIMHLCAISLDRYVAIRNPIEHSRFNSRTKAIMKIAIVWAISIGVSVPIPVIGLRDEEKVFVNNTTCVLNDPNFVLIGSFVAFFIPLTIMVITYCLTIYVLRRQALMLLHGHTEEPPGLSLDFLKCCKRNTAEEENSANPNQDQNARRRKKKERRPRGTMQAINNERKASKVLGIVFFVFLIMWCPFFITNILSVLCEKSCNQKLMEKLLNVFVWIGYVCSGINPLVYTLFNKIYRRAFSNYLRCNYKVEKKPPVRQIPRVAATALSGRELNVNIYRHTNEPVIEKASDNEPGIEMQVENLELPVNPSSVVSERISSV
Test: [35S]guanosine 5-O-(3-thio)triphosphate binding (5-HT2c partial agonism)
Assay type: biochemical
Conditions: [35S]GTPgammaS binding, partial agonist

Emax: 52%
SMILES: Clc1ccc([C@]23CNC[C@H]2C3)cc1Cl [amitifadine]
